Measurements: patent US20230085307A1, “PYRIDAZINONE COMPOUND AND HERBICIDE” (NISSAN CHEMICAL CORPORATION, priority 2019, published 2023)

How the values were obtained:
Chinese sprangletop = assay: Test Example 3: herbicidal effect by foliage application, Wagner pot (Table 18, symbol D); format: in vivo, chinese sprangletop (Leptochloa chinensis); settings: for herbicidal effect on Chinese sprangletop (D): 320 g/ha
In short: (§1)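 Plants were sown in alluvial soil held under 0.1–0.5 cm standing water and grown 14 days in a greenhouse at 25–30 °C. An emulsifiable formulation, water-diluted to the set dose, was then sprayed onto the foliage, and effects were scored three weeks later using previously defined criteria.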

lambsquarters = assay: Test Example 5: herbicidal effect by foliage application, plastic box (Table 20, symbol O); format: in vivo, lambsquarters (Chenopodium album); settings: for herbicidal effect on lambsquarters (O): foliage application, 320 g/ha, three weeks after application
Description: (§2) [Test Example 5] Herbicidal Effect Test by Foliage Application
(§3) Sterilized diluvial soil was placed in a plastic box having a length of 21 cm, a width of 13 cm, and a depth of 7 cm. The seeds of each of southern crabgrass, green foxtail, barnyard grass, wild oat, blackgrass, Italian ryegrass, windgrass, velvetleaf, redroot pigweed, lambsquarters, chickweed, false cleavers, persian speedwell, corn, soybean, rice, wheat, beet, and rapeseed were sowed in a spot-like manner and covered with the soil having a thickness of about 1.5 cm. Thereafter, the plants were grown in a greenhouse at 25° C. to 30° C. After 14-day growth of the plants, the emulsion agent of the compound of the present invention prepared according to Formulation Example 2 was diluted with water so as to achieve a predetermined herbicide amount, and the diluted emulsion agent was uniformly applied to a foliage part with a small-sized spray. Three weeks after the herbicide application, the effect of the herbicide on each plant was evaluated according to the criteria of Test Example 1.

blackgrass = assay: Test Example 5: herbicidal effect by foliage application, plastic box (Table 20, symbol J); format: in vivo, blackgrass (Alopecurus myosuroides); settings: for herbicidal effect on blackgrass (J): foliage application, 320 g/ha, three weeks after application
Description: as §2, §3

redroot pigweed = assay: Test Example 5: herbicidal effect by foliage application, plastic box (Table 20, symbol N); format: in vivo, redroot pigweed (Amaranthus retroflexus); settings: amount of applied herbicide 320 g/ha; foliage application after 14-day growth; evaluated three weeks after application
Description: as §2, §3

southern crabgrass = assay: Test Example 5: herbicidal effect by foliage application, plastic box (Table 20, symbol F); format: in vivo, southern crabgrass (Digitaria ciliaris); settings: for herbicidal effect on southern crabgrass (F): foliage application, 320 g/ha, three weeks after application
In short: (§4)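 Foliar spray test: emulsion formulation diluted in water to a set application rate, sprayed onto 14-day-old plants raised in diluvial soil at 25° C to 30° C under glass. Both herbicidal effect and crop effect rated visually three weeks later.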

windgrass = assay: Test Example 5: herbicidal effect by foliage application, plastic box (Table 20, symbol L); format: in vivo, windgrass (Apera spica-venti); settings: for herbicidal effect on windgrass (L): foliage application, 320 g/ha, three weeks after application
Description: as §2, §3

barnyard grass [1] = assay: Test Example 5: herbicidal effect by foliage application, plastic box (Table 20, symbol H); format: in vivo, barnyard grass (Echinochloa crus-galli); settings: for herbicidal effect on barnyard grass (H): foliage application, 320 g/ha, three weeks after application
In short: as §4

barnyard grass [2] = assay: Test Example 3: herbicidal effect by foliage application, Wagner pot (Table 18, symbol H); format: in vivo, barnyard grass (Echinochloa crus-galli); settings: for herbicidal effect on barnyard grass (H): 320 g/ha
In short: as §1

wild oat = assay: Test Example 5: herbicidal effect by foliage application, plastic box (Table 20, symbol I); format: in vivo, wild oat (Avena fatua); settings: for herbicidal effect on wild oat (I): foliage application, 320 g/ha, three weeks after application
In short: as §4

rice flat sedge = assay: Test Example 3: herbicidal effect by foliage application, Wagner pot (Table 18, symbol E); format: in vivo, rice flat sedge (Cyperus iria); settings: for herbicidal effect on rice flat sedge (E): 320 g/ha
In short: as §1

green foxtail = assay: Test Example 5: herbicidal effect by foliage application, plastic box (Table 20, symbol G); format: in vivo, green foxtail (Setaria viridis); settings: for herbicidal effect on green foxtail (G): foliage application, 320 g/ha, three weeks after application
Description: as §2, §3

Italian ryegrass = assay: Test Example 5: herbicidal effect by foliage application, plastic box (Table 20, symbol K); format: in vivo, Italian ryegrass (Lolium multiflorum); settings: for herbicidal effect on Italian ryegrass (K): foliage application, 320 g/ha, three weeks after application
In short: as §4

velvetleaf = assay: Test Example 5: herbicidal effect by foliage application, plastic box (Table 20, symbol M); format: in vivo, velvetleaf (Abutilon theophrasti); settings: for herbicidal effect on velvetleaf (M): foliage application, 320 g/ha, three weeks after application
In short: as §4

persian speedwell = assay: Test Example 5: herbicidal effect by foliage application, plastic box (Table 20, symbol R); format: in vivo, Persian speedwell (Veronica persica); settings: for herbicidal effect on persian speedwell (R): foliage application, 320 g/ha, three weeks after application
In short: as §4

[3] = amount of applied herbicide 320 g/ha, foliage application after 14-day growth, evaluated three weeks after application
[4] = amount of applied herbicide 320 g/ha

| Compound | herbicidal effect on Chinese sprangletop (D) (Chinese sprangletop) | herbicidal effect on barnyard grass (H) (barnyard grass [2]) | herbicidal effect on rice flat sedge (E) (rice flat sedge) | herbicidal effect on lambsquarters (O) (lambsquarters) | herbicidal effect on blackgrass (J) (blackgrass) | herbicidal effect on southern crabgrass (F) (southern crabgrass) | herbicidal effect on windgrass (L) (windgrass) | herbicidal effect on barnyard grass (H) (barnyard grass [1]) | herbicidal effect on wild oat (I) (wild oat) | herbicidal effect on green foxtail (G) (green foxtail) | herbicidal effect on Italian ryegrass (K) (Italian ryegrass) | herbicidal effect on velvetleaf (M) (velvetleaf) | herbicidal effect on persian speedwell (R) (persian speedwell) | also measured |
| --- | --- | --- | --- | --- | --- | --- | --- | --- | --- | --- | --- | --- | --- | --- |
| COCc1ccccc1-c1sc2c(Cl)cccc2c1-c1c(O)c(C)nn(C)c1=O [4-081] | 0 (Herbicidal rate of 5% or less (almost no effect)) | 3 (Herbicidal rate of 40% or more and less than 70%) | 0 (Herbicidal rate of 5% or less (almost no effect)) | – | – | – | – | – | – | – | – | – | – | Herbicidal effect by foliage application, O: lambsquarters (lambsquarters; [3]): 1 (Herbicidal rate of 5% or more and less than 20%); Herbicidal effect by foliage application, J: blackgrass (blackgrass; [3]): 0 (Herbicidal rate of 5% or less (almost no effect)); Herbicidal effect by foliage application, N: redroot pigweed (redroot pigweed): 1 (Herbicidal rate of 5% or more and less than 20%); Herbicidal effect by foliage application, F: southern crabgrass (southern crabgrass; [3]): 0 (Herbicidal rate of 5% or less (almost no effect)); Herbicidal effect by foliage application, L: windgrass (windgrass; [3]): 0 (Herbicidal rate of 5% or less (almost no effect)); Herbicidal effect by foliage application, H: barnyard grass (barnyard grass [1]; [3]): 3 (Herbicidal rate of 40% or more and less than 70%); Herbicidal effect by foliage application, I: wild oat (wild oat; [3]): 0 (Herbicidal rate of 5% or less (almost no effect)); Herbicidal effect by foliage application, G: green foxtail (green foxtail; [3]): 3 (Herbicidal rate of 40% or more and less than 70%); Herbicidal effect by foliage application, K: Italian ryegrass (Italian ryegrass; [3]): 0 (Herbicidal rate of 5% or less (almost no effect)); Herbicidal effect by foliage application, M: velvetleaf (velvetleaf; [3]): 3 (Herbicidal rate of 40% or more and less than 70%); Herbicidal effect by foliage application, R: persian speedwell (persian speedwell; [3]): 1 (Herbicidal rate of 5% or more and less than 20%) |
| COc1cc2sc(-c3ccc(F)cc3OC)c(-c3c(O)c(C)nn(C)c3=O)c2cc1Cl [5-075] | 3 (Herbicidal rate of 40% or more and less than 70%) | 5 (Herbicidal rate of 90% or more (almost completely withered)) | 3 (Herbicidal rate of 40% or more and less than 70%) | 4 (Herbicidal rate of 70% or more and less than 90%) | 3 (Herbicidal rate of 40% or more and less than 70%) | 3 (Herbicidal rate of 40% or more and less than 70%) | 3 (Herbicidal rate of 40% or more and less than 70%) | 4 (Herbicidal rate of 70% or more and less than 90%) | 0 (Herbicidal rate of 5% or less (almost no effect)) | 5 (Herbicidal rate of 90% or more (almost completely withered)) | 0 (Herbicidal rate of 5% or less (almost no effect)) | 0 (Herbicidal rate of 5% or less (almost no effect)) | 4 (Herbicidal rate of 70% or more and less than 90%) | – |
| Cc1cc2sc(-c3ccc(F)cc3)c(-c3c(O)c(C)nn(C)c3=O)c2cc1C [5-088] | 2 (Herbicidal rate of 20% or more and less than 40%) | 3 (Herbicidal rate of 40% or more and less than 70%) | 2 (Herbicidal rate of 20% or more and less than 40%) | 0 (Herbicidal rate of 5% or less (almost no effect)) | 0 (Herbicidal rate of 5% or less (almost no effect)) | 0 (Herbicidal rate of 5% or less (almost no effect)) | 0 (Herbicidal rate of 5% or less (almost no effect)) | 0 (Herbicidal rate of 5% or less (almost no effect)) | 0 (Herbicidal rate of 5% or less (almost no effect)) | 0 (Herbicidal rate of 5% or less (almost no effect)) | 1 (Herbicidal rate of 5% or more and less than 20%) | 2 (Herbicidal rate of 20% or more and less than 40%) | 4 (Herbicidal rate of 70% or more and less than 90%) | – |
| COc1ccc(-c2sc3cc(C)c(C)cc3c2-c2c(O)c(C)nn(C)c2=O)cc1 [5-092] | 0 (Herbicidal rate of 5% or less (almost no effect)) | 2 (Herbicidal rate of 20% or more and less than 40%) | 0 (Herbicidal rate of 5% or less (almost no effect)) | 0 (Herbicidal rate of 5% or less (almost no effect)) | 0 (Herbicidal rate of 5% or less (almost no effect)) | 0 (Herbicidal rate of 5% or less (almost no effect)) | 0 (Herbicidal rate of 5% or less (almost no effect)) | 0 (Herbicidal rate of 5% or less (almost no effect)) | 0 (Herbicidal rate of 5% or less (almost no effect)) | 0 (Herbicidal rate of 5% or less (almost no effect)) | 0 (Herbicidal rate of 5% or less (almost no effect)) | 0 (Herbicidal rate of 5% or less (almost no effect)) | 4 (Herbicidal rate of 70% or more and less than 90%) | – |
| COc1ccccc1-c1sc2c(F)cc(F)cc2c1-c1c(O)c(C)nn(C)c1=O [6-001] | 2 (Herbicidal rate of 20% or more and less than 40%) | 3 (Herbicidal rate of 40% or more and less than 70%) | 4 (Herbicidal rate of 70% or more and less than 90%) | 3 (Herbicidal rate of 40% or more and less than 70%) | 0 (Herbicidal rate of 5% or less (almost no effect)) | 0 (Herbicidal rate of 5% or less (almost no effect)) | 0 (Herbicidal rate of 5% or less (almost no effect)) | 3 (Herbicidal rate of 40% or more and less than 70%) | 0 (Herbicidal rate of 5% or less (almost no effect)) | 2 (Herbicidal rate of 20% or more and less than 40%) | 0 (Herbicidal rate of 5% or less (almost no effect)) | 4 (Herbicidal rate of 70% or more and less than 90%) | 0 (Herbicidal rate of 5% or less (almost no effect)) | – |
| CCOc1ccccc1-c1oc2ccc(Cl)cc2c1-c1c(O)c(C)nn(C)c1=O [9-003] | – | – | – | 0 (Herbicidal rate of 5% or less (almost no effect)) | 0 (Herbicidal rate of 5% or less (almost no effect)) | 0 (Herbicidal rate of 5% or less (almost no effect)) | 0 (Herbicidal rate of 5% or less (almost no effect)) | 0 (Herbicidal rate of 5% or less (almost no effect)) | 0 (Herbicidal rate of 5% or less (almost no effect)) | 0 (Herbicidal rate of 5% or less (almost no effect)) | 0 (Herbicidal rate of 5% or less (almost no effect)) | 3 (Herbicidal rate of 40% or more and less than 70%) | 3 (Herbicidal rate of 40% or more and less than 70%) | Herbicidal effect on D (Chinese sprangletop), foliage application (Chinese sprangletop; [4]): 0 (Herbicidal rate of 5% or less (almost no effect)); Herbicidal effect on H (barnyard grass), foliage application (barnyard grass [2]; [4]): 3 (Herbicidal rate of 40% or more and less than 70%); Herbicidal effect on E (rice flat sedge), foliage application (rice flat sedge; [4]): 1 (Herbicidal rate of 5% or more and less than 20%) |
